In US9453014B2, “Cyclic amide derivatives as inhibitors of 11-β-hydroxysteroid dehydrogenase and uses thereof” (CONNEXIOS LIFE SCIENCES PVT. LTD., priority 2011, dated 2016):

Target: T1, human full length HSD11 β 1 (Homo sapiens, UniProt P28845)
T1 construct: transient expression of human full length HSD11 β 1 expression vector; host or cells: CHO cells (transient transfection)
Assay: In Vitro HSD11β1 Inhibition Assay
Assay type: cell-based
Settings: CHO cells transiently expressing human HSD11β1; 200 nM cortisone+500 uM NADPH overnight; cortisone to cortisol by LC/MS-MS; read-out: 11βHSD1 (IC50)
Method in brief: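 CHO cells transiently transfected with human full-length HSD11β1 were re-seeded after 24 h and, 24 h later, incubated overnight with 200 nM cortisone plus 500 uM NADPH and inhibitor. Cortisone-to-cortisol conversion was measured by LC/MS-MS. IC50 from an 8-point log concentration–inhibition curve.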

T1 sequence (P28845 whole entry): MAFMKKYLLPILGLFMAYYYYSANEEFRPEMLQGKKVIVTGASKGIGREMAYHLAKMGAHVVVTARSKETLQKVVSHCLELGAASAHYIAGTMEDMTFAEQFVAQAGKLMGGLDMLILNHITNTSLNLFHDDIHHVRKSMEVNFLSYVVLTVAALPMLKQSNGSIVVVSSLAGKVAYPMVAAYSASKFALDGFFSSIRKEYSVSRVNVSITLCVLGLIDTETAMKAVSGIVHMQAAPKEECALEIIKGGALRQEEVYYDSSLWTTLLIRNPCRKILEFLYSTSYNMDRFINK

Row | Compound | IC50 [nM]
1 | CC1CC2CCCCC2N1C(=O)CCc1nc2ccccc2s1 (centres unmarked) [Example 83, 3-(1,3-benzothiazol-2-yl)-1-(2-methyloctahydro-1H-indol-1-yl)propan-1-one] | > 250
2 | CC1CCC2CCCCC2N1C(=O)CCc1c[nH]c2ccccc12 (centres unmarked) [Compound 38, 3-(1H-indol-3-yl)-1-(2-methyloctahydroquinolin-1(2H)-yl)propan-1-one] | 150 to 200
3 | O=C(CCc1c[nH]c2ccccc12)N1CCOC2CCCCC21 (centres unmarked) [Compound 67, 3-(1H-indol-3-yl)-1-(octahydro-4H-1,4-benzoxazin-4-yl)propan-1-one] | > 250
4 | CC(C)C(CC(=O)N1CCCC2CCCCC21)c1c[nH]c2cccc(F)c12 (centres unmarked) [Example 111, 3-(4-fluoro-1H-indol-3-yl)-4-methyl-1-(octahydroquinolin-1(2H)-yl)pentan-1-one] | < 100
5 | O=C(CC(=O)N1CCCC2CCCCC21)c1c[nH]c2ccc(Cl)cc12 (centres unmarked) [Compound 19, 1-(5-chloro-1H-indol-3-yl)-3-(octahydroquinolin-1(2H)-yl)propane-1,3-dione] | > 250
6 | O=C(CCc1c[nH]c2ccc(Cl)cc12)N1CCCC2CCCCC21 (centres unmarked) [Compound 6, 3-(5-chloro-1H-indol-3-yl)-1-(octahydroquinolin-1(2H)-yl)propan-1-one] | 200 to 250
7 | CC(CC(=O)N1CCCC2(CO)CCCCC12)c1c[nH]c2cccc(Cl)c12 (centres unmarked) [Example 130, 3-(4-chloro-1H-indol-3-yl)-1-[4a-(hydroxymethyl)octahydroquinolin-1(2H)-yl]butan-1-one] | > 250
8 | CC(C)C(CC(=O)N1CCC(C(=O)O)C2CCCCC21)c1c[nH]c2cc(F)ccc12 (single isomer, unassigned) [Example 177, 1-[3-(6-fluoro-1H-indol-3-yl)-4-methylpentanoyl]decahydroquinoline-4-carboxylic acid] | 150 to 200
9 | CC(C)C(CC(=O)N1CCCC2(C)CCCCC12)c1c[nH]c2cccc(F)c12 (single isomer, unassigned) [Example 115, 3-(4-fluoro-1H-indol-3-yl)-4-methyl-1-(4a-methyloctahydroquinolin-1(2H)-yl)pentan-1-one] | > 250
10 | CCn1cc(C(C)CC(=O)N2CCCC3C(C(=O)O)CCCC32)c2c(Cl)cccc21 (centres unmarked) [Compound 266, 1-[3-(4-chloro-1-ethyl-1H-indol-3-yl)butanoyl]decahydroquinoline-5-carboxylic acid] | > 250
11 | O=C(CCc1nc2ccccc2s1)N1CCOC2CCCCC21 (centres unmarked) [Example 80, 3-(1,3-benzothiazol-2-yl)-1-(octahydro-4H-1,4-benzoxazin-4-yl)propan-1-one] | > 250
12 | O=C(CCc1n[nH]c2ccccc12)N1CCCC2CCCCC21 (centres unmarked) [Example 88, 3-(1H-indazol-3-yl)-1-(octahydroquinolin-1(2H)-yl)propan-1-one] | > 250
13 | Cc1cccc2[nH]cc(CCC(=O)N3C(C)CCC4CCCCC43)c12 (centres unmarked) [Compound 35, 3-(4-methyl-1H-indol-3-yl)-1-(2-methyloctahydroquinolin-1(2H)-yl)propan-1-one] | < 100
14 | CC(C)C(CC(=O)N1CCC(C(=O)O)C2CCCCC21)c1c[nH]c2cccc(F)c12 (centres unmarked) [Example 179, 1-[3-(4-fluoro-1H-Indol-3-yl)-4-methylpentanoyl]decahydroquinoline-4-carboxylic acid] | > 250
15 | N#CC(CC(=O)N1CCCC2CCCCC21)c1c[nH]c2ccccc12 (centres unmarked) [Example 109, 2-(1H-indol-3-yl)-4-(octahydroquinolin-1(2H)-yl)-4-oxobutanenitrile] | > 250
16 | CC(CC(=O)N1CCCC2C(C(=O)O)CCCC21)c1c[nH]c2cccc(-c3ncccc3F)c12 (centres unmarked) [Compound 262, 1-{3-[4-(3-fluoropyridin-2-yl)-1H-indol-3-yl]butanoyl}decahydroquinoline-5-carboxylic acid] | > 250
17 | CC1CC2CCCCC2N1C(=O)CCc1c[nH]c2ccccc12 (centres unmarked) [Compound 45] | > 250
18 | Cc1cccc2c1c(CCC(=O)N1CC(C)OC3CCCCC31)cn2C (centres unmarked) [Compound 69, 3-(1,4-dimethyl-1H-indol-3-yl)-1-(2-methyloctahydro-4H-1,4-benzoxazin-4-yl)propan-1-one] | > 250
19 | CC(CC(=O)N1CCCC2(c3ccccc3)CCCCC12)c1c[nH]c2cccc(Cl)c12 (centres unmarked) [Example 128, 3-(4-chloro-1H-indol-3-yl)-1-(4a-phenyloctahydroquinolin-1(2H)-yl)butan-1-one] | > 250
20 | CC(CC(=O)N1CCCC2C(C(=O)O)CCCC21)c1cn(C)c2cccc(-c3ccc(F)o3)c12 (centres unmarked) [Compound 263, 1-{3-[4-(5-fluorofuran-2-yl)-1-methyl-1H-indol-3-yl]butanoyl}decahydroquinoline-5-carboxylic acid] | < 100
21 | O=C(Cc1c[nH]c2ccccc12)N1CCCC2CCCCC21 (centres unmarked) [Compound 9, 2-(1H-indol-3-yl)-1-(octahydroquinolin-1(2H)-yl)ethanone] | 200 to 250

Row | Compound | IC50 [nM]
22 | CC(CC(=O)N1CCCC2CCCCC21)c1c[nH]c2cccc(-c3ccc(C(=O)O)o3)c12 (centres unmarked) [Compound 246, 5-{3-[4-(octahydroquinolin-1(2H)-yl)-4-oxobutan-2-yl]-1H-indol-4-yl}furan-2-carboxylic acid] | > 250
23 | Cc1cccc2c1nnn2C(C)CC(=O)N1CCC(C(=O)O)C2CCCCC21 (centres unmarked) [Example 168, 1-[3-(4-methyl-1H-benzotriazol-1-yl)butanoyl]decahydroquinoline-4-carboxylic acid] | > 250
24 | CC(CC(=O)N1CCCC2CCCCC21)c1c[nH]c2cccc(F)c12 (single isomer, unassigned) [Example 122, 3-(4-fluoro-1H-indol-3-yl)-1-(octahydroquinolin-1(2H)-yl)butan-1-one] | < 100
25 | Cc1ccc2[nH]cc(C(C)CC(=O)N3CCCC4C(C(=O)O)CCCC43)c2c1Cl (centres unmarked) [Compound 203, 1-[3-(4-chloro-5-methyl-1H-indol-3-yl)butanoyl]decahydroquinoline-5-carboxylic acid] | > 250
26 | CC(CC(=O)N1CCCC2CCCCC21)c1c[nH]c2cccc(F)c12 (single isomer, unassigned) [Example 123, 3-(4-fluoro-1H-indol-3-yl)-1-(octahydroquinolin-1(2H)-yl)butan-1-one] | < 100
27 | CC(CC(=O)N1CCCC2C(C(=O)O)CCCC21)c1cn(C)c2cccc(C3CC3)c12 (single isomer, unassigned) [Compound 212, 1-[3-(4-cyclopropyl-1-methyl-1H-indol-3-yl)butanoyl]decahydroquinoline-5-carboxylic acid] | > 250
28 | CC(CC(=O)N1C(C)CCC2C(C(=O)O)CCCC21)c1c[nH]c2cccc(-c3ccco3)c12 (centres unmarked) [Compound 231, 1-{3-[4-(furan-2-yl)-1H-indol-3-yl]butanoyl}-2-methyldecahydroquinoline-5-carboxylic acid] | 150 to 200
29 | CC(CC(=O)N1CCCC2C(c3nnn[nH]3)CCCC21)c1c[nH]c2cccc(C3CC3)c12 (centres unmarked) [Compound 240, 3-(4-cyclopropyl-1H-indol-3-yl)-1-[5-(1H-tetrazol-5-yl)octahydroquinolin-1(2H)-yl]butan-1-one] | > 250
30 | Cn1cc(CCC(=O)N2CCCC3CCCCC32)c2cccnc21 (centres unmarked) [Example 87, 3-(1-methyl-1H-pyrrolo[2,3-b]pyridin-3-yl)-1-(octahydroquinolin-1 (2H)-yl)propan-1-one] | < 100
31 | CC12CCCCC1N(C(=O)CCc1c[nH]c3ccccc13)CCC2 (single isomer, unassigned) [Compound 56, 3-(1H-indol-3-yl)-1-(4a-methyloctahydroquinolin-1(2H)-yl)propan-1-one] | 150 to 200
32 | CC(CC(=O)N1CCC(CC(=O)O)C2CCCCC21)c1c[nH]c2cccc(C3CC3)c12 (centres unmarked) [Compound 189, (1-[3-(4-cyclopropyl-1H-indol-3-yl)butanoyl]decahydroquinolin-4-yl)acetic acid] | > 250
33 | O=C(CS(=O)(=O)c1c[nH]c2ccccc12)N1CCCC2CCCCC21 (centres unmarked) [Compound 57, 2-(1H-indol-3-ylsulfonyl)-1-(octahydroquinolin-1(2H)-yl)ethanone] | > 250
34 | CC(CC(=O)N1CCCC2C(C(=O)O)CCCC21)c1c[nH]c2cccc(C#N)c12 (centres unmarked) [Compound 197, 1-[3-(4-cyano-1H-indol-3-yl)butanoyl]decahydroquinoline-5-carboxylic acid] | > 250
35 | CC(CC(=O)N1CCCC2CCCCC21)c1c[nH]c2ncccc12 (centres unmarked) [Example 143, 1-(octahydroquinolin-1(2H)-yl)-3-(1H-pyrrolo[2,3-b]pyridin-3-yl)butan-1-one] | < 100
36 | N#CC(Cc1c[nH]c2ccccc12)C(=O)N1CCCC2CCCCC21 (centres unmarked) [Example 98, 2-(1H-indol-3-ylmethyl)-3-(octahydroquinolin-1(2H)-yl)-3-oxopropanenitrile] | > 250
37 | CC(CC(=O)N1CCC(C(=O)O)C2CCCCC21)c1c[nH]c2nccc(Cl)c12 (centres unmarked) [Example 171, 1-[3-(4-chloro-1H-pyrrolo[2,3-b]pyridin-3-yl)butanoyl]decahydroquinoline-4-carboxylic acid] | > 250
38 | O=C(CCc1nc2ccccc2s1)N1CCCC2CCCCC21 (centres unmarked) [Example 75, 3-(1,3-benzothiazol-2-yl)-1-(octahydroquinolin-1(2H)-yl)propan-1-one] | < 100
39 | Cc1cccc2[nH]cc(CCC(=O)N3CCOC4CCCCC43)c12 (centres unmarked) [Compound 64, 3-(4-methyl-1H-indol-3-yl)-1-(octahydro-4H-1,4-benzoxazin-4-yl)propan-1-one] | 150 to 200
40 | O=C1CCN(C(=O)CCc2c[nH]c3ccccc23)C2CCCCC12 (centres unmarked) [Compound 26, 1-[3-(1H-indol-3-yl)propanoyl]octahydroquinolin-4(1H)-one] | > 250
41 | O=C(CCn1nnc2ccccc21)N1CCOC2CCCCC21 (centres unmarked) [Example 91, 3-(1H-benzotriazol-1-yl)-1-(octahydro-4H-1,4-benzoxazin-4-yl)propan-1-one] | > 250
